Values quoted from earlier work in patent US20220168203A1, “METHOD FOR PREPARING HAIR TREATMENTS AGENTS WITH ORGANIC C1-C6 ALKOXY-SILANES” (Henkel AG & Co. KGaA, priority 2019, published 2022).

Conditions: 25° C.

Row | Compound | solubility in water (in words) | solubility in water
1 | O=C(O)C1=NN(c2ccc(S(=O)(=O)O)cc2)C(=O)C1N=Nc1ccc(S(=O)(=O)O)cc1 (stereo not shown) [Acid Yellow 23, 4,5-dihydro-5-oxo-1-(4-sulfophenyl)-4-((4-sulfophenyl)azo)-1H-pyrazole-3-carboxylic acid] | highly soluble | 
2 | O=S(=O)(O)c1ccc(N=Nc2c(O)ccc3ccccc23)cc1 [Acid Orange 7, 4-[(2-hydroxy-1-naphthyl)azo]benzene sulphonate] |  | more than 7 g/L
3 | Acid Yellow 3 |  | 20 mg/mL
4 | O=[N+]([O-])c1cc([N+](=O)[O-])c2ccc(S(=O)(=O)O)cc2c1O [Acid Yellow 9, 8-hydroxy-5,7-dinitro-2-naphthalenesulfonic acid] |  | above 40 g/L
